The values that follow come from PMC8881610 (Nature Communications, 2022).

Assay [1] deals with GCGR (Homo sapiens, UniProt P47871). Briefly: Whole-cell binding assay, competition with 125I-GCG. Also on record: V5 (C); 6×His (C); expressed in transfected cells; host or cells: CHO-K1. Conditions: Fig. 7c receptor binding profile, n = 3 in duplicate. As to the method: (§1) Human embryonic kidney 293 cells containing SV40 large T-antigen (HEK293T) were cultured in DMEM (Gibco) supplemented with 10% (v/v) fetal bovine serum (FBS, Gibco), 1 mM sodium pyruvate (Gibco) and 100 units/mL penicillin and 100 μg/mL streptomycin at 37 °C in 5% CO2. Chinese hamster ovary (CHO-K1) cells were cultured in F-12 (Gibco) containing 10% FBS, 100 units/mL penicillin and 100 μg/mL streptomycin at 37 °C in 5% CO2. For cAMP and receptor expression assays, HEK293T cells were seeded into 6-well cell culture plates at a density of 7 × 10^5 cells per well. After overnight incubation, cells were transfected with GIPR, GLP-1R or GCGR construct using Lipofectamine 2000 or Lipofectamine 3000 transfection reagent (Invitrogen). For whole-cell binding assay, CHO-K1 cells were seeded into 96-well fibronectin-treated cell culture plates at a density of 3 × 10^4 cells per well. After overnight incubation, cells were transfected with GIPR, GLP-1R or GCGR construct using Lipofectamine 2000 transfection reagent (Invitrogen). Following 24 h culturing, the transfected cells were ready for use.
For GLP-1R and GCGR, CHO-K1 cells (30,000 cells/well) were seeded into Isoplate-96 plates and incubated for 24 h at 37 °C in 5% CO2. The WT or mutant constructs were transiently transfected using Lipofectamine 2000 transfection reagent as previous described. They were then washed twice using F-12 with 0.1% BSA or 0.1% casein, 33 mM HEPES, and incubated for 2 h at 37 °C. […] Cells were washed three times with ice-cold PBS and lysed in PBS with 1% Triton X-100, 20 mM Tris-HCl. After addition of scintillation cocktail (PerkinElmer), radioactivity (CPM) was counted on a MicroBeta^2 microplate counter (PerkinElmer). Data were normalized to the WT response and analyzed using three-parameter logistic equation.

For assay [2] the following is noted: clinical trial outcome; Drugs@FDA, ChemBL, ClinicalTrials.gov; cited from earlier work.
For assay [3], the target named is T1, GIPR (Homo sapiens, UniProt P48546).
T1 sequence (P48546 22-466): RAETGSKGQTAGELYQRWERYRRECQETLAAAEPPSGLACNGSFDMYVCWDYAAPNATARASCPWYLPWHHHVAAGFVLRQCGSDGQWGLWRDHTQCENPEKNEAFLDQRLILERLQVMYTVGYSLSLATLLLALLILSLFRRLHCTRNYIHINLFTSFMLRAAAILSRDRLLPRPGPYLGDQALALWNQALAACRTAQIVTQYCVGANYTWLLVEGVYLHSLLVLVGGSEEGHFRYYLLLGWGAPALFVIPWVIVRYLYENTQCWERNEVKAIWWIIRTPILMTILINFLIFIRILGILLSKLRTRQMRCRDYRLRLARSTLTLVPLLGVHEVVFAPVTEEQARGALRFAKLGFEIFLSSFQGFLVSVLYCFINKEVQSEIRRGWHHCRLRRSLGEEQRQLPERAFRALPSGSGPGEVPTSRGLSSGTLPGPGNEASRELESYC
Briefly: Whole-cell binding assay, competition with 125I-GIP1-42. On the set-up: acylated tirzepatide to the full-length or modified; Flag; expressed in transfected cells. Conditions: Fig. 7c receptor binding profile, n = 3 in duplicate. As to the method: as §1
For GIPR, CHO-K1 cells were cultured in F-12 medium with 10% FBS and seeded at a density of 30,000 cells/well in Isoplate-96 plates (PerkinElmer). The WT or mutant GIPR was transiently transfected using Lipofectamine 2000 transfection reagent as previous described. They were then washed twice using F-12 with 0.1% BSA or 0.1% casein, 33 mM HEPES, and incubated for 2 h at 37 °C. […] Following incubation, cells were washed three times with ice-cold PBS and lysed by addition of 50 μL lysis buffer (PBS supplemented with 20 mM Tris-HCl, 1% Triton X-100, pH 7.4). Fifty µL of scintillation cocktail (OptiPhase SuperMix, PerkinElmer) were added and the plates were subsequently counted for radioactivity (counts per minute, CPM) in a MicroBeta^2 microplate counter (PerkinElmer).

The target of assay [4] is GLP-1R (Homo sapiens, UniProt P43220). Briefly: cAMP accumulation assay, GLP-1R WT, mutant or modified constructs. On the set-up: Flag; expressed in transfected cells; host or cells: HEK293T. Type of assay: cell-based. Conditions: GLP-1R; HEK293T, n = 4; SEM. On the procedure:
as §1
The human GLP-1R was modified with its native signal sequence (M1-P23) replaced by the HA signal peptide to facilitate receptor expression. To obtain a GLP-1R–Gs complex with good homogeneity and stability, we used the NanoBiT tethering strategy, in which the C terminus of GLP-1R was directly attached to LgBiT subunit followed by a TEV protease cleavage site and a double MBP tag. […] The constructs were cloned into both pcDNA3.1 and pFastBac vectors for functional assays in mammalian cells and protein expression in insect cells, respectively. Other constructs including the full-length and various mutants of human GLP-1R were cloned into pcDNA3.1 vector for cAMP accumulation and whole-cell binding assays.
For GIPR, GLP-1R and GCGR, multi-targeting agonist stimulated cAMP accumulation was measured by a LANCE Ultra cAMP kit (PerkinElmer). After 24 h culture, the transfected cells were seeded into 384-well microtiter plates at a density of 3,000 cells per well in HBSS supplemented with 5 mM HEPES, 0.1% (w/v) BSA or 0.1% (w/v) casein and 0.5 mM 3-isobutyl-1-methylxanthine. The cells were stimulated with different concentrations of peptide agonists for 40 min at RT. Eu-cAMP tracer and ULight^TM-anti-cAMP were then diluted by cAMP detection buffer and added to the plates separately to terminate the reaction. Plates were incubated at RT for 1 h and the fluorescence intensity measured at 620 nm and […] by an EnVision multilabel plate reader (PerkinElmer).
For orientation: Changes in cAMP serve as a functional read-out for many G protein-coupled receptors.

GCGR, sequence (P47871 26-477): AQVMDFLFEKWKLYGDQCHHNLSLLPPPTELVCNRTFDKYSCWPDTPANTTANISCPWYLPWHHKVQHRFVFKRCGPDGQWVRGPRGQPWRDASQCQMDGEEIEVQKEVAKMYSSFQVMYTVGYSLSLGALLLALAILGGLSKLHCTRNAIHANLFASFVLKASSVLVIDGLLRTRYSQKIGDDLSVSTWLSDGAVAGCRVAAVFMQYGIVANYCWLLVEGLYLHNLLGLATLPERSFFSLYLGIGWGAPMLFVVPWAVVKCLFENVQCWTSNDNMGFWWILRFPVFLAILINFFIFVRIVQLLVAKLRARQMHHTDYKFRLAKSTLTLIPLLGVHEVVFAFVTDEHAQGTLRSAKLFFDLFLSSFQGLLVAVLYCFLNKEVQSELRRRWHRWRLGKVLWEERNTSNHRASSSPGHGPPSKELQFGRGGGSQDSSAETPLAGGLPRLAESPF
GLP-1R, sequence (P43220 24-463): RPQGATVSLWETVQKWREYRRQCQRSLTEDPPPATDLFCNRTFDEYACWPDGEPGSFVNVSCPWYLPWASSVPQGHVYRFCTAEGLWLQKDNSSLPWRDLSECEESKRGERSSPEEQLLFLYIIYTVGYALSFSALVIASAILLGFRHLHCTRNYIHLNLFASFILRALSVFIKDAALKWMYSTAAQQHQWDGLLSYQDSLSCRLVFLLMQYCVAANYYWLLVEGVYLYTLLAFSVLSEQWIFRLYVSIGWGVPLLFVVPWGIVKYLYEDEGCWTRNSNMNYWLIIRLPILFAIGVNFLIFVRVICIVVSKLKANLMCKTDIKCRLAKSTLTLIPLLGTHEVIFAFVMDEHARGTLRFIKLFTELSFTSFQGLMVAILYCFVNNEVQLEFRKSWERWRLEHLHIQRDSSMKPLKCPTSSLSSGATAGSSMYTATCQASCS

Turning to `CC[C@H](C)[C@H](NC(=O)[C@H](CO)NC(=O)[C@H](Cc1ccc(O)cc1)NC(=O)[C@H](CC(=O)O)NC(=O)[C@H](CO)NC(=O)[C@@H](NC(=O)[C@H](Cc1ccccc1)NC(=O)[C@@H](NC(=O)CNC(=O)[C@H](CCC(=O)O)NC(=O)[C@H](C)NC(=O)[C@@H](N)Cc1ccc(O)cc1)[C@@H](C)O)[C@@H](C)CC)C(=O)N[C@@H](C)C(=O)N[C@@H](CCSC)C(=O)N[C@@H](CC(=O)O)C(=O)N[C@@H](CCCCN)C(=O)N[C@H](C(=O)N[C@@H](Cc1c[nH]cn1)C(=O)N[C@@H](CCC(N)=O)C(=O)N[C@@H](CCC(N)=O)C(=O)N[C@@H](CC(=O)O)C(=O)N[C@@H](Cc1ccccc1)C(=O)N[C@H](C(=O)N[C@@H](CC(N)=O)C(=O)N[C@@H](Cc1c[nH]c2ccccc12)C(=O)N[C@@H](CC(C)C)C(=O)N[C@@H](CC(C)C)C(=O)N[C@@H](C)C(=O)N[C@@H](CCC(N)=O)C(=O)N[C@@H](CCCCN)C(=O)NCC(=O)N[C@@H](CCCCN)C(=O)N[C@@H](CCCCN)C(=O)N[C@@H](CC(N)=O)C(=O)N[C@@H](CC(=O)O)C(=O)N[C@@H](Cc1c[nH]c2ccccc12)C(=O)N[C@@H](CCCCN)C(=O)N[C@@H](Cc1c[nH]cn1)C(=O)N[C@@H](CC(N)=O)C(=O)N[C@H](C(=O)N[C@H](C(=O)N[C@@H](CCC(N)=O)C(=O)O)[C@@H](C)O)[C@@H](C)CC)C(C)C)[C@@H](C)CC` [GIP1-42, glucose-dependent insulinotropic polypeptide], the “GCGR (pIC50 ± S.E.M.)” value in assay [1] was “N.B”.
As to “Dulaglutide: approved GLP-1R mono-agonist”, in assay [2], the Body weight is listed as -0.20 kg or %, the Fasting plasma glucose is listed as -34.20 mg/dL and the HAb1c is -1.45%.
With “Albiglutide: approved GLP-1 analog, GLP-1R mono-agonist”, in assay [2], the Body weight was -0.04 kg or %, the Fasting plasma glucose is reported as -30.00 mg/dL and the HAb1c was -1.3%. Further, in assay [1], the “GCGR (pIC50 ± S.E.M.)” value is reported as “N.B”. For the same compound, the “GIPR (pIC50 ± S.E.M.)” value in assay [3] is “N.B”. In assay [4], the “cAMP Emax ± S.E.M.” value is given as 100.13 ± 1.66 % max GLP-1(7-36)NH2 and the “cAMP pEC50 ± S.E.M.” value came out at 11.02 ± 0.05.
As to Exenatide: approved GLP-1R mono-agonist, in assay [2], the Body weight was -0.65 kg or %, the Fasting plasma glucose is -34.20 mg/dL and the HAb1c is reported as -1.21%.
Take `CCCCCCCCCCCCCCCC(=O)N[C@@H](CCC(=O)NCCCC[C@H](NC(=O)[C@H](C)NC(=O)[C@H](C)NC(=O)[C@H](CCC(N)=O)NC(=O)CNC(=O)[C@H](CCC(=O)O)NC(=O)[C@H](CC(C)C)NC(=O)[C@H](Cc1ccc(O)cc1)NC(=O)[C@H](CO)NC(=O)[C@H](CO)NC(=O)[C@@H](NC(=O)[C@H](CC(=O)O)NC(=O)[C@H](CO)NC(=O)[C@@H](NC(=O)[C@H](Cc1ccccc1)NC(=O)[C@@H](NC(=O)CNC(=O)[C@H](CCC(=O)O)NC(=O)[C@H](C)NC(=O)[C@@H](N)Cc1c[nH]cn1)[C@@H](C)O)[C@@H](C)O)C(C)C)C(=O)N[C@@H](CCC(=O)O)C(=O)N[C@@H](Cc1ccccc1)C(=O)N[C@H](C(=O)N[C@@H](C)C(=O)N[C@@H](Cc1c[nH]c2ccccc12)C(=O)N[C@@H](CC(C)C)C(=O)N[C@H](C(=O)N[C@@H](CCCNC(=N)N)C(=O)NCC(=O)N[C@@H](CCCNC(=N)N)C(=O)NCC(=O)O)C(C)C)[C@@H](C)CC)C(=O)O` [Liraglutide]: the “GCGR (pIC50 ± S.E.M.)” value in assay [1] is “N.B”. In assay [3], the “GIPR (pIC50 ± S.E.M.)” value is “N.B”.
